Assay results as given in patent publication US4837342A, “Prostacyclin analogue, and blood circulation improving agent and anti-ulcer composition containing it as active ingredient” (Sagami Chemical Research Center, priority 1986, dated 1989).
Like-named read-outs stand apart in the source and are kept apart here.

Assays:
[1] = test system: Blood platelet (ADP agglutination); assay: Blood platelet agglutination inhibiting activity (ADP-induced), washed rabbit platelet suspension; type: cell-based, rabbit (Japanese white male rabbits); conditions: for IC50: Oryctolagus cuniculus, Platelet, ADP 10 μM, concentration suppressing agglutination to 50%, read-out: Platelet agglutination inhibiting activity ED50, ADP agglutination; for Activity ratio, platelet agglutination inhibiting activity, ADP agglutination: relative to prostacyclin = 1
Protocol: (§1) Blood platelet aggutination inhibiting activity
(§2) Japanese white male rabbits having a weight of from 2.0 to 2.5 kg were used.
(§3) Under anesthesia with sodium Pentobarbital, blood was sampled from the carotid artery, and mixed with a 1/7 volume of an anticoagulant citric acid dextrose solution. Then, the mixture was subjected to centrifugal separation at 140×g for 15 minutes, whereupon the supernatant (platelet rich plasma:PRP) was obtained. PRP was subjected to centrifugal separation at 1,300×g for 7 minutes. The blood platelet pellets thus obtained were washed with a HEPES buffer solution (pH 6.5) for washing blood platelets, and subjected to centrifugal separation at 1,300×g for 7 minutes. The blood platelet pellets washed twice under such condition, were suspended in a suspending liquid (a buffer solution for washing blood platelets, which contains 0.1% of human fibrinogen, 1.8 mM of CaCl2 and 1.2 mM of MgCl2) to obtain a blood platelet suspension having a concentration of from 5×10^8 to 8×10^8 platelets/ml.
(§4) The platelet agglutination ability was measured by means of an agglutination meter. To 380 μl of the platelet suspension, 10 μl of a test compound or a solvent as the control, was added. Three minutes later, 10 μl of a platelet agglutinating substance (10 μM of ADP or 1 μg/ml of collagen, as the final concentration) was added thereto to induce agglutination.
(§5) The blood platelet agglutination inhibiting activity of each test compound was represented by ED50 (i.e. the concentration of the test compound where the platelet agglutination is suppressed to 50%).

[2] = test system: Blood platelet (Collagen agglutination); assay: Blood platelet agglutination inhibiting activity (collagen-induced), washed rabbit platelet suspension; type: cell-based, rabbit (Japanese white male rabbits); conditions: for IC50: Oryctolagus cuniculus, Platelet, collagen 1 μg/ml, concentration suppressing agglutination to 50%, read-out: Platelet agglutination inhibiting activity ED50, Collagen agglutination; for Activity ratio, platelet agglutination inhibiting activity, Collagen agglutination: relative to prostacyclin = 1
Protocol: as §1, §2, §3, §4, §5

[3] = test system: coronary artery; assay: Blood flow-increasing activity in the coronary artery, anesthetized dog; type: in vivo, crossbred adult dog; conditions: for Blood flow increase in coronary artery / ED50: dog, near arterial injection; for Blood flow increase in coronary artery: at 3 μg/kg; for Activity ratio, blood flow-increasing activity in coronary artery: relative to prostacyclin = 1; for ED50: Canis lupus familiaris, reactive hyperemia = 100%
Protocol: Blood flow-increasing activity in the coronary artery
A crossbred adult dog having a weight of from 9 to 15 kg was anesthetized with sodium Pentobarbital and subjected to thoractomy under artificial respiration. After pericardiectomy, the frontal descending branch of the left coronary artery was separated from the surrounding tissues, and a blood flow-measuring probe was attached thereto under sodium heparin treatment. The coronary blood flow was measured by using an electromagnetic flow meter. The test compound was injected into the coronary artery by near arterial injection, and the blood flow-increasing activity in the coronay artery was represented by ED50 (i.e. the dose of a test compound at which the blood flow increases by 50%, as evaluated on the basis that the blood flow increase by the reactive hyperemia caused by releasing the blood flow of the coronary artery after blocking it for 15 seconds, is evaluated to be 100%).

[4] = test system: vertebral artery; assay: Blood flow-increasing activity in the vertebral artery, anesthetized dog; type: in vivo, crossbred adult dog; conditions: for ED50: Canis lupus familiaris, papaverine hydrochloride 100 μg/kg = 100%; for Activity ratio, blood flow-increasing activity in vertebral artery: relative to prostacyclin = 1
Excerpt: Blood flow-increasing activity in the vertebral artery
A made or female crossbred adult dog having a weight of from 8 to 13 kg was anesthetized by intravenous administration of sodium Pentobarbital and subjected to thoractomy along the mediam line under artificial respiration to expose the left vertebral artery. Under sodium peparin treatment, a polyethylene cannula was inserted into the vertebral artery, and a blood flow-measuring probe was attached to its other end, to which a blood circulation tube led from the left femoral artery was connected, whereby the blood flow in the vertebral artery was measured by using an electromagnetic flow meter. The test compound was injected into the vertebral artery by near arterial injection, and the blood flow-increasingactivity in the vertebral artery was represented by ED50 (i.e. the dose of a test compound at which the blood flow increases by 50%, as evaluated on the basis that the blood flow increase (representing substantially the maximum reaction) by the administration of 100 μg/kg papaverine hydrochloride into the vertebral artery, is evaluated to be 100%).

[5] = test system: femoral artery; assay: Blood flow-increasing activity in the femoral artery, anesthetized dog; type: in vivo, crossbred adult dog; conditions: for ED50: Canis lupus familiaris, papaverine hydrochloride 100 μg/kg = 100%; for Activity ratio, blood flow-increasing activity in femoral artery: relative to prostacyclin = 1
Protocol: Blood flow-increasing activity in the femoral artery
A male or female crossbred adult dog having a weight of from 8 to 13 kg, was anesthetized by intravenous administration of sodium Pentobarbital. Then, a tracheal cannula was inserted, and artificial respiration was conducted. The blood flow in the femoral artery was measured by inserting the annula into the left femoral artery under sodium heparin treatment and providing a blood flow measuring probe at it other end, and by using an electromagnetic flow meter. The test compound was injected into the femoral artery by near arterial injection, and the blood flow-increasing activity in the femoral artery was represented by ED50 (i.e. the dose of a test compound at which the blood flow increases by 50%, as evaluated on the bais that the blood flow increase (representing substantially the maximum reaction) by the administration of 100 μg/kg of papaveline hydrochloride into the femoral artery, is evaluted to be 100%).

[6] = test system: diastolic blood pressure; assay: Hypotensive activity, anesthetized dog; type: in vivo, crossbred adult dog; conditions: for Hypotensive activity, blood pressure decrease: at 10 μg/kg i.v.; for Activity ratio, hypotensive activity: relative to prostacyclin = 1; for ED (50 mmHg): Canis lupus familiaris, iv
Protocol: A male or female crossbred adult dog having a weight of from 9 to 14 kg was anesthetized by intraveous administration of sodium Pentobarbital. Then, the left carotid was exposed under artificial respiration, and the blood pressure was measured by using an electric blood pressure meter. […]

[7] = test system: Ethanol ulcer; assay: Ethanol ulcer inhibiting activity; type: in vivo, Male wister rats; conditions: rat; for Ethanol ulcer inhibition: oral administration of 30 μg/kg; for ED50: po, P.O., 30 minutes before 99.5% ethanol
Protocol: Ethanol ulcer inhibiting activity
Male wister rats having a weight of from 170 to 270 g were put into individual cages and starved for 24 hours. During this starvation period, the rats were allowed to drink water freely. A test compound or PGE2 as a comparative compound was orally administered in an amount of 3, 10 or 30 μg/kg, and 30 minutes later, 1 ml of 99.5% ethanol was orally administered to each rat. One hour after the ethanol administration, each rat was filled by cervical vertebral luxation, and the stomach was taken out. A 1% formaline solution was injected into the stomach in an amount of about 8 ml, and the stomach was fixed in the formaline solution for 30 minutes. After the fixing, the stomach was severed along the greater curvature, and the mucous membrane surface of the stomach was gently washed with flowing water. Then, the total length of damages appearing on the gastric glandular portion was obtained and used as the ulcer index.
The ethanol ulcer inhibiting activity of a test compound was represented by ED50 (i.e. the dose of the test compound at which the ulcer was inhibited by 50% relative to the ulcer index of the non-treated group). To the non-treated group, the solvent was administered.

[8] = test system: Hydrochloric acid ulcer; assay: Hydrochloric acid ulcer inhibiting activity; type: in vivo, wister rats; conditions: rat; oral administration of 30 μg/kg; 0.6N hydrochloric acid; read-out: Hydrochloric acid ulcer inhibiting activity, Inhibiting rate
Protocol: Hydrochloric acid ulcer inhibiting activity
Male wister […] having a weight of from 190 to 240 g were used. The rats were starved in the same manner as in Test Example 6, and the test compounds and PGE2 were, respectively, orally administered in an amount of 30 μg/kg, and 30 minutes later, 1 ml of 0.6N hydrochloric acid was orally administered. Thirty minutes after the hydrochloric acid administration, each rat was killed by cervical vertebral luxation. Then, the stomach was taken out and fixed, and the ulcer index was obtained, in the same manner as in Test Example 6. The hydrochloric acid ulcer inhibiting activity of a test compound was represented by the inhibiting percentage (i.e. the percentage of the ulcer index of the treated group to the ulcer index of the non-treated group). To the non-treated group, the solvent was administered.

[9] = test system: Indomethacine ulcer; assay: Indomethacine ulcer inhibiting activity; type: in vivo, Male wister rats; conditions: rat
Excerpt: Indomethacine ulcer inhibiting activity
Male wister rats having a weight of from 210 to 270 g were used. The rats were starved in the same manner as in Test Example 6. […] Three hours after the indomethacine administration, the test compound or PGE2 was again orally administered in the same amount. Six hours after the first administration of indomethacine, each rat was killed by cervical bertebral luxation. The stomach was taken out and fixed, and the ulcer index was obtained, in the same manner as in Test Example 6.
The indomethacine ulcer inhibiting activity of a test compound was represented by the inhibiting percentage (i.e. the inhibiting percentage of the ulcer index of the treated group to the ulcer index of the non-treated group). To the non-treated group, the solvent was administered.

[10] = oral administration of 60 μg/kg twice
[11] = dog, at 3 μg/kg, near arterial injection

Compound	IC50 [1]	Activity ratio, platelet agglutination inhibiting activity, ADP agglutination [1]	IC50 [2]	Activity ratio, platelet agglutination inhibiting activity, Collagen agglutination [2]	Blood flow increase in coronary artery [3]	Activity ratio, blood flow-increasing activity in coronary artery [3]	ED50 ([4]; dog, near arterial injection)	Activity ratio, blood flow-increasing activity in vertebral artery [4]	ED50 ([5]; dog, near arterial injection)	Activity ratio, blood flow-increasing activity in femoral artery [5]	Hypotensive activity, blood pressure decrease ([6]; dog)	Activity ratio, hypotensive activity [6]	Ethanol ulcer inhibition [7]	inhibition in vivo at 0.03 mg/kg [8]	Indomethacine ulcer inhibition (in words) [9, 10]	ED50 [3]	ED50 [7]	also measured
CCCCC[C@H](O)/C=C/[C@@H]1[C@H]2CCC(CCCC(=O)O)=C[C@H]2C[C@H]1O [(a), 3-(3-carboxypropyl)-7-exo-(3α-hydroxy-trans-1-octenyl)-8-endo-hydroxy-cis-bicyclo[4,3,0]nona-2-ene]	1300 nM	1/455	970 nM	1/285	37.6%	About 1/500	0.44 µg/kg	1/10	0.19 µg/kg	1/8	20 mmHg	1/192	20.0%	15.3%	Certain inhibition			
CCCCC[C@H](O)/C=C/[C@@H]1[C@H]2CCC(CCCCC(=O)O)=C[C@H]2C[C@H]1O [(e), 3-(4-carboxybutyl)-7-exo-(3α-hydroxy-trans-1-octenyl)-8-enodo-hydroxy-cis-bicyclo[4,3,0]nona-2-ene]	290 nM	1/100	280 nM	1/82		1/380	2.5 µg/kg	1/57	0.46 µg/kg	1/19	17.9 mmHg	1/213	28.5%	18.3%	Certain inhibition	3.8 µg/kg		
CCC#CCC(C)[C@H](O)/C=C/[C@@H]1[C@H]2CCC(CCOCC(=O)O)=C[C@H]2C[C@H]1O (stereo partly drawn) [(g), 3(3-oxa-4-carboxybutyl)-7-exo-(3α-hydroxy-4,8-dimethyl-1-trans-octen-6-ynyl)-8-endo-hydroxy-cis-bicyclo[4,3,0]nona-2-ene]	38 nM	1/13				1/55	2 µg/kg	1/45	0.72 µg/kg	1/30		1/67		42.1%		0.55 µg/kg	5.38 µg/kg	ED (50 mmHg) ([6]; Table 2, read-out: Hypotensive activity ED50 mmHg): 16.1 µg/kg; ED (50 mmHg) ([6]; dog, femoral vein, Table 1, read-out: Hypotensive activity ED50 (dose reducing diastolic blood pressure by 50 mmHg)): 16 µg/kg; Indomethacine ulcer inhibiting activity, Inhibiting rate [9, 10]: 57.3%
CCC#CCC(C)[C@H](O)/C=C/[C@@H]1[C@H]2CCC(COCCC(=O)O)=C[C@H]2C[C@H]1O (stereo partly shown) [(h)]	> 3000 nM				25%						15 mmHg		32.5%	21.3%	Certain inhibition			Blood flow increase in vertebral artery [4, 11]: 28.5%; Blood flow increase in femoral artery [5, 11]: 31.7%
CCCCC[C@H](O)/C=C/[C@H]1[C@H](O)CC(=O)[C@@H]1C/C=C\CCCC(=O)O [PGE2, reference compound]														61.6%			9.03 µg/kg	Indomethacine ulcer inhibiting activity, Inhibiting rate ([9]; oral administration 30 μg/kg twice): 98.3%
